Measurements taken from article PMC4445981, “The glutamate transport inhibitor DL-Threo-β-Benzyloxyaspartic acid (DL-TBOA) differentially affects SN38- and oxaliplatin-induced death of drug-resistant colorectal cancer cells” (BMC Cancer, 2015).

Assays:
Type in all cases: cell-based, human
[1] = system: CTR1; assay: CTR1 protein level by Western blotting; conditions: 24 h
Method: Fig. 3 Effect of acute DL-TBOA and chemotherapy treatment on CTR1 protein level. Parental and drug-resistant HCT116 (a) and LoVo (b) cell lines were exposed to SN38 (0.8 μM) or oxaliplatin (20 μM), alone or in combination with 350 μM DL-TBOA as indicated for 24 h. Equal amounts of protein per lane were separated by SDS-PAGE and the protein levels of CTR1 were determined by Western blotting. Top: Representative Western blots (tubulin serves as a loading control), bottom: Densitometric quantification data summarized from 3 independent experiments per condition. Quantitative data are means with S.E.M. error bars of 3 independent experiments. *) p < 0.05, **) p < 0.01, ***) p < 0.001 compared to the control group without drug or TBOA treatment. Two-way ANOVA with Tukey post-test
Cells were grown to a confluence of 60-80 % and treated with chemotherapy, siRNA- or plasmid transfection as indicated. Cells were washed once in PBS, lysed in lysis buffer (1 % SDS, 0.1 M Tris pH 7.5, and 1 mM Na3VO4), sonicated, and protein content determined (DC assay, BioRad). Lysates were mixed 2:1with NuPage LDS sample buffer (Invitrogen). SDS-PAGE was carried out in NOVEX chambers with NuPAGE 10 % Bis-Tris gels under reducing and denaturing conditions, using BenchMark protein ladder (Invitrogen), and 15 μg protein per lane. […] Bands were scanned and quantified using UN-SCAN-IT (Silk Scientific).

[2] = system: parental and drug-resistant HCT116 and LoVo cell lines; assay: MTT viability assay, HCT116 and LoVo cell lines
Method: Fig. 2 DL-TBOA augments SN38-induced death in SN38-resistant cells, but protects oxaliplatin-resistant cells from oxaliplatin-induced death. Parental and drug-resistant HCT116 and LoVo cell lines seeded in 96-well dishes were exposed to SN38 (0.1 or 0.8 μM) or oxaliplatin (0.8 or 20 μM), alone or in combination with 70 or 350 μM DL-TBOA as indicated, for 48 h. Viability was assessed by MTT assay. a-b Parental HCT116 cells, (c) SN38 resistant HCT116 cells, (d) Oxaliplatin-resistant HCT116 cells, (e-f) Parental LoVo cells, (g) SN38 resistant LoVo cells, (h) Oxaliplatin-resistant LoVo cells. Data are means with S.E.M. error bars of 3 independent experiments. *) p < 0.05, **) p < 0.01, ***) p < 0.001 compared to the control group without drug or TBOA treatment; #) p < 0.05 compared to controls without TBOA treatment. One-way ANOVA followed by Dunnett post-test
Cells were seeded at appropriate density (LoVo 10,000, and HCT116 5000 cells /100 μl) in growth medium in 96-well plates. Next day, cells were treated with inhibitors and/or chemotherapy in a total volume of 200 μl in growth medium and incubated for 48 h at 37 °C, 5 % CO2. The medium was replaced with 100 μl of 0.5 mg/ml 3-(4,5-dimethylthiazol-2-yl)-2,5-diphenyltetrazolium bromide (MTT) in growth medium. The reaction was stopped 1.5-2.5 h later by addition of 100 μl 20 % SDS in 0.02 M HCl, and incubation overnight to allow complete lysis of cells and formazan crystals. Absorbance was measured in an ELISA plate reader (Thermo Scientific MultiScan FC) at 550 nm. Data were background subtracted and % viability relative to controls calculated.

[3] = system: p53; assay: p53 protein level by Western blotting; conditions: 24 h; for p53 protein level: 0.8 μM SN38 or 20 μM oxaliplatin
Method: Fig. 5 Effects of DL-TBOA on cell death and survival parameters after chemotherapy treatment. Parental and drug-resistant HCT116 (a) and LoVo (b) cell lines were exposed to SN38 (0.8 μM) or oxaliplatin (20 μM), alone or in combination with 350 μM DL-TBOA as indicated, for 24 h. Equal amounts of protein per lane were separated by SDS-PAGE and the protein level of p53 was determined by Western blotting. Top: Representative Western blots, with p150 as loading control. Bottom: Densitometric quantifications based on 3 independent experiments per condition. Data are means with S.E.M. error bars of 3 independent experiments. *) p < 0.05, **) p < 0.01, ***) p < 0.001,****) p < 0.0001 compared to the control group without drug or TBOA treatment; Two-way ANOVA with Tukey post-test
(§1) Cells were grown to a confluence of 60-80 % and treated with chemotherapy, siRNA- or plasmid transfection as indicated. Cells were washed once in PBS, lysed in lysis buffer (1 % SDS, 0.1 M Tris pH 7.5, and 1 mM Na3VO4), sonicated, and protein content determined (DC assay, BioRad). Lysates were mixed 2:1with NuPage LDS sample buffer (Invitrogen). SDS-PAGE was carried out in NOVEX chambers with NuPAGE 10 % Bis-Tris gels under reducing and denaturing conditions, using BenchMark protein ladder (Invitrogen), and 15 μg protein per lane. Proteins were transferred to PVDF membranes, which were Ponceau S stained, blocked for 1 h at 37 °C in 5 % nonfat dry milk in TBST (0.01 M Tris/HCl, 0.15 M NaCl, 0.1 % Tween 20, pH 7.4), incubated overnight at 4 °C with primary antibodies diluted in blocking buffer, washed in TBST, incubated with secondary antibodies for 1 h, washed in TBST, and developed using BCIP/NBT (KPL). Bands were scanned and quantified using UN-SCAN-IT (Silk Scientific).

[4] = system: p21^WAF1/Cip (p21); assay: p21 protein level by Western blotting; conditions: for p21 protein level: 24 h, 0.8 μM SN38 or 20 μM oxaliplatin
Method: as §1
Supplementary file 12885_2015_1405_MOESM3_ESM.tiff: Additional file 3: Figure S3. Effects of DL-TBOA on cell death and survival parameters after chemotherapy treatment of HCT116 cells. Parental and drug-resistant HCT116 cell lines seeded in 6-well dishes were exposed to SN38 (0.8 μM) or oxaliplatin (20 μM), alone or in combination with 350 μM DL-TBOA as indicated, for 24 h. Equal amounts of protein per lane were separated by SDS-PAGE and the protein levels of p21, and PARP-1 (full-length and cleaved, the latter indicated by arrowheads) were determined by Western blotting. Top: Representative Western blots, with p150 as loading control. Bottom: Densitometric quantifications based on 3 independent experiments per condition. Data are means with S.E.M. error bars of 3 independent experiments. *) p < 0.05, **) p < 0.01, ***) p < 0.001,****) p < 0.0001 compared to the control group without drug or TBOA treatment; #) p < 0.05 compared to controls without TBOA treatment. Two-way ANOVA with Tukey post-test.

| SMILES | effect on CTR1 protein level ([1]; 350 μM DL-TBOA +/- SN38 (0.8 μM) or oxaliplatin (20 μM), HCT116 and LoVo lines) | effect on SN38-induced loss of viability ([2]; SN38-resistant HCT116 and LoVo cells, concomitant DL-TBOA 70 or 350 μM, 48 h) | effect on oxaliplatin-induced loss of viability ([2]; both parental cell lines, DL-TBOA 70 or 350 μM concomitantly with oxaliplatin, 48 h) | effect on viability of untreated cells ([2]; no chemotherapeutic, DL-TBOA 70 or 350 μM, 48 h, all cell lines (Fig. 2a-h)) | effect on oxaliplatin-induced loss of viability ([2]; oxaliplatin-resistant HCT116 and LoVo cells, DL-TBOA 70 or 350 μM, 48 h) | effect on SN38-induced loss of viability ([2]; parental cell lines, DL-TBOA 70 or 350 μM concomitantly with SN38, 48 h) | effect on chemotherapy-induced p53 induction ([3]; 350 μM DL-TBOA concomitant to SN38 or oxaliplatin, parental and drug-resistant HCT116 and LoVo) | effect on cellular level of p21 ([4]; DL-TBOA, HCT116 and LoVo cells) | effect on CTR1 protein expression ([1]; 20 μM oxaliplatin, all cell lines except parental HCT116, HCT116-Oxa, LoVo-Oxa) | viable cells remaining ([2]; parental HCT116 and LoVo, 48 h, 20 μM oxaliplatin (highest dose tested)) | p53 protein level ([3]; SN38-resistant HCT116 cells) | p53 protein level ([3]; parental HCT116 cells) | p21 protein level ([4]; SN38-resistant HCT116 cells) | p21 protein level ([4]; parental HCT116 cells) |
| --- | --- | --- | --- | --- | --- | --- | --- | --- | --- | --- | --- | --- | --- | --- |
| N[C@H](C(=O)O)[C@H](OCc1ccccc1)C(=O)O (racemic) [TBOA, DL-Threo-β-Benzyloxyaspartic acid] | without detectable effects | concentration-dependently enhanced SN38-induced loss of viability | counteracted the effect of oxaliplatin on viability | small decrease in viability | reversed oxaliplatin-induced loss of viability | slightly exacerbated the SN38-induced loss of viability | apparent decrease in p53 induction | did not significantly alter |  |  |  |  |  |  |
| O=C(O)C(=O)O.[NH-][C@@H]1CCCC[C@H]1[NH-].[Pt+2] [oxaliplatin] |  |  |  |  |  |  |  |  | tended to reduce CTR1 protein expression | about 20% | retained | markedly induced | retained | markedly induced |
